In brackets after ≈: the same amount, converted by molar mass. Entries after “also recorded” stand apart in the source; their conditions may differ. Like-named read-outs stand apart in the source and are kept apart here.
Experiments:
M. tuberculosis H37Ra = assay: microbe, parasite or virus in culture; type: cell-based, Mycobacterium tuberculosis; details: for MIC: Mycobacterium tuberculosis, H37RA, read-out: MIC MTB H37Ra
M. smegmatis DSM43756 = assay: MIC / in-house urea library screen against M. smegmatis; type: cell-based; details: read-out: MIC M. smegmatis (Msm)
Mtb [1] = details: strain not stated; cited from earlier work
LepB = assay: FRET assay with membrane-bound LepB; details: M. smegmatis membranes
physchem = details: aqueous buffer, kinetic from dmso stock
[2] = test system: probe-bound proteins in M. tuberculosis H37Ra cells; type: binding; details: for competition of 227-p1 labelling of EphF and EphD: 5 μM 227-p1, competitor in excess (25 μM 227)
Mtb H37Ra proteome = type: cell-based
WT M. tuberculosis H37Rv = assay: microbe, parasite or virus in culture; type: cell-based
[3] = test system: three bacterial strains from the mouse microbiota (Oligo-Mouse-Microbiota); assay: MIC measurements in strains from the Oligo-Mouse-Microbiota; type: cell-based
MmpL3 = MmpL3 (Mycobacterium tuberculosis, UniProt P9WJV5); type: cell-based, M. tuberculosis
MmpL3, sequence (P9WJV5 whole entry): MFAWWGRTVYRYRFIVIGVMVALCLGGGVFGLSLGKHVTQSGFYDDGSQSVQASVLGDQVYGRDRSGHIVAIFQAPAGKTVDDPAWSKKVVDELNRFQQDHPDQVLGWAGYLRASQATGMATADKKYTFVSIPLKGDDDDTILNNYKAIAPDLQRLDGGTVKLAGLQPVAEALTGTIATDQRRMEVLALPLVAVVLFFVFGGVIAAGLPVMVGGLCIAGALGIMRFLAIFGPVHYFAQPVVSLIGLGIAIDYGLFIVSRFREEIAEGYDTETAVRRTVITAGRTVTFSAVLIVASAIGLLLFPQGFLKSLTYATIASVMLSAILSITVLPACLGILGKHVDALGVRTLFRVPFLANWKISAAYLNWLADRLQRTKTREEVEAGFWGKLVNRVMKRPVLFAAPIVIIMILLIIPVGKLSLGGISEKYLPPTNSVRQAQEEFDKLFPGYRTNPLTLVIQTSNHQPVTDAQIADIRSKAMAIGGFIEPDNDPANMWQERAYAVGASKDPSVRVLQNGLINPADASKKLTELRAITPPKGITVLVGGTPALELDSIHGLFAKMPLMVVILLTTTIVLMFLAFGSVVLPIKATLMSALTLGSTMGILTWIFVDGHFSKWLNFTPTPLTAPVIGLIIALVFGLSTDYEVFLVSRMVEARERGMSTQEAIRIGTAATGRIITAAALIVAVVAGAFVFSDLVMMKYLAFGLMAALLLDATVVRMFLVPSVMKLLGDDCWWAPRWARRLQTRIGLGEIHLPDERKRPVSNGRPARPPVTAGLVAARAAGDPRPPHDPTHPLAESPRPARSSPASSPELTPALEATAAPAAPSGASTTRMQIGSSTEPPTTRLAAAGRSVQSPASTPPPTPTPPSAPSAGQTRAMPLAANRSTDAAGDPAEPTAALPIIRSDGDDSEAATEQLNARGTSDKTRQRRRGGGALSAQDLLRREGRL

MTB [4] = assay: Checkerboard assay with ethionamide; type: cell-based, M. tuberculosis; details: combination with ethionamide
[5] = test system: M. tuberculosis H37Ra cells; type: cell-based
epoxide hydrolase EphF = type: biochemical, M. tuberculosis
HeLa cells = assay: cells; type: cell-based; details: Homo sapiens
in vivo [6] = assay: in vivo; parameters: species or system CD-1 female mice; details: female, CD-1, mouse; for bioavailability: F
Protocol: (DMA), and 95% (20% Solutol HS15 in water).
Blood timepoints were taken
liquid chromatography coupled to tandem mass spectrometry. Pharmacokinetic parameters were
LC-MS/MS analytical methods for PK studies
to create standard curves solutions.
10µLs of control, standard, or
internal standards Labetalol (Sigma Aldrich). Extracts were vortexed for 5 minutes and centrifuged at
with 75 µLs of Milli-Q deionized water.
Multiple-reaction monitoring of […]
Extracts were vortexed for 5 minutes
75 µL of extract was combined
HPLC-MS was performed as previously specified.

[7] = i.v. 5 mg kg^−1
in vivo [8] = details: female, CD-1, mouse
in vitro = details: mouse, microsomes
[9] = test system: MmpL3 underexpressing (−ATc) Mtb H37Rv; type: cell-based, M. tuberculosis
[10] = Mycolicibacterium smegmatis, DSM43756
[11] = Mycobacterium tuberculosis, H37RV
[12] = HeLa, read-out: MTT assay IC50 95% confidence interval (CI)

O=C(Nc1ccc(Cl)c(C(F)(F)F)c1)NC1CCC1 [Compound 10]
MIC (M. tuberculosis H37Ra): 25 µM (≈ 7.32 µg/mL)

CC1(NC(=O)Nc2ccc(F)c(F)c2F)CCCC1 [Compound 6]
MIC (M. tuberculosis H37Ra): > 50 µM

CC1CCCC(NC(=O)Nc2ccc(Cl)c(C(F)(F)F)c2)C1 (centres unmarked) [Compound 14]
MIC (M. tuberculosis H37Ra): 0.39 µM (≈ 0.131 µg/mL)

O=C(Nc1ccc(Cl)c(C(F)(F)F)c1)NC12CC3CC(CC(O)(C3)C1)C2 [Compound 18]
MIC (M. tuberculosis H37Ra): 6.25 µM (≈ 2.43 µg/mL)

CC1(NC(=O)Nc2ccccc2)CCCC1 [Compound 5]
MIC (M. tuberculosis H37Ra): 25 µM (≈ 5.46 µg/mL)

O=C(Nc1ccc2c(c1)OC(F)(F)O2)Nc1ccc(Cl)c(C(F)(F)F)c1 [PK150]
MIC (M. smegmatis DSM43756): 3.1 µM (≈ 1.22 µg/mL)
MIC against Mtb (Mtb [1]): 6.25 µM (≈ 2.47 µg/mL)
modulation of LepB activity (LepB): not a target; also recorded: did not show any inhibition

O=C(Nc1cc(C(F)(F)F)cc(C(F)(F)F)c1)Nc1ccc(Cl)c(OC(F)(F)F)c1 [Compound 275]
MIC (M. smegmatis DSM43756; [10]): 0.8 µM (≈ 0.373 µg/mL)

CC1(NC(=O)Nc2ccc(Cl)c(C(F)(F)F)c2)COC2(CCC2)OC1 [Compound 23]
MIC MTB H37Ra (M. tuberculosis H37Ra): 6.25 to 12.5 µM
MIC (M. tuberculosis H37Ra): 6.25 µM (≈ 2.37 µg/mL)
solubility kinetic at 5 min (physchem): 58 µM (≈ 22 µg/mL)

CC1CCC(NC(=O)Nc2ccc(Cl)c(C(F)(F)F)c2)CC1 (centres unmarked) [Compound 15]
MIC (M. tuberculosis H37Ra): 0.39 µM (≈ 0.131 µg/mL)

C#CC1(NC(=O)Nc2ccc(N=[N+]=[N-])cc2)CCCCC1 [Compound 227-p1]
MIC (M. tuberculosis H37Ra): 25 µM (≈ 7.08 µg/mL)
MIC (M. smegmatis DSM43756; [10]): 6.25 µM (≈ 1.77 µg/mL)
EphD and EphF enrichment by probe ([2]; 5 μM 227-p1, Mtb): significantly enriched

O=C(Nc1ccc(Cl)c(OC(F)(F)F)c1)NC1CCCCC1 [Compound 1]
MIC (M. tuberculosis H37Ra): 3.13 µM (≈ 1.05 µg/mL)

O=C(Nc1ccc(Cl)c(C(F)(F)F)c1)NC1CCCC1 [Compound 9]
MIC MTB H37Ra (M. tuberculosis H37Ra): 3.13 µM (≈ 0.96 µg/mL)
MIC (M. tuberculosis H37Ra): 3.2 µM (≈ 0.981 µg/mL)

O=C(Nc1ccc(Cl)c(C(F)(F)F)c1)NC12CC(C1)C2 [Compound 19]
MIC (M. tuberculosis H37Ra): 12.5 µM (≈ 3.81 µg/mL)

C#CCCC1(CCOC(=O)C2CCC(NC(=O)Nc3ccc(Cl)c(C(F)(F)F)c3)CC2)N=N1 (centres unmarked) [Compound 227-p3]
MIC (M. tuberculosis H37Ra): > 50 µM
MIC (M. smegmatis DSM43756; [10]): > 50 µM

O=C(Nc1ccc(Cl)c(C(F)(F)F)c1)NC1CCC2(CC1)OCCO2 [Compound 22]
MIC (M. tuberculosis H37Ra): 1.56 to 3.13 µM (≈ 0.591 to 1.19 µg/mL)
solubility kinetic at 5 min (physchem): 112 µM (≈ 42.4 µg/mL)

CC1(NC(=O)Nc2ccc(F)c(C(F)(F)F)c2)CCCC1 [Compound 4]
MIC (M. tuberculosis H37Ra): 3.13 µM (≈ 0.952 µg/mL)

CC1(NC(=O)Nc2ccc(Cl)c(C(F)(F)F)c2)CCCC1 [Compound 3]
MIC MTB H37Ra (M. tuberculosis H37Ra): 0.39 µM (≈ 0.125 µg/mL)
MIC (M. tuberculosis H37Ra): 0.4 µM (≈ 0.128 µg/mL)

CC1(NC(=O)Nc2cc(F)c(F)c(F)c2)CCCC1 [Compound 8]
MIC (M. tuberculosis H37Ra): 25 µM (≈ 6.81 µg/mL)

O=C(Nc1ccc(Cl)c(C(F)(F)F)c1)NC1(CO)CCCCC1 [Compound 16]
MIC (M. tuberculosis H37Ra): 3.13 µM (≈ 1.1 µg/mL)

C#CCCC1(CCOC(=O)c2ccc(NC(=O)Nc3ccccc3)cc2)N=N1 [Compound 150-pi]
MIC MTB H37Ra (M. tuberculosis H37Ra): inactive

CC1(NC(=O)Nc2ccc(F)c(F)c2)CCCC1 [Compound 7]
MIC (M. tuberculosis H37Ra): 25 µM (≈ 6.36 µg/mL)

CC(C)=CCC/C(C)=C/CNCCNC1C2CC3CC(C2)CC1C3 (centres unmarked) [SQ109, reference compound]
dysregulated in FP? (Mtb H37Ra proteome; full proteome (FP), protein Rv3587c (O53572), probable conserved membrane protein): slightly upregulated with SQ109 treatment

C#CCCC1(CCOC(=O)c2ccc(NC(=O)NC3CCCCC3)cc2)N=N1 [Compound 227-p2]
MIC (M. tuberculosis H37Ra): > 50 µM
MIC (M. smegmatis DSM43756; [10]): > 50 µM

O=C(Nc1ccc(Cl)c(C(F)(F)F)c1)NC1CC1 [Compound 11]
MIC (M. tuberculosis H37Ra): > 50 µM

CC1(C)OCC(NC(=O)Nc2ccc(Cl)c(C(F)(F)F)c2)CO1 [Compound 20]
MIC (M. tuberculosis H37Ra): 3.13 µM (≈ 1.1 µg/mL)

CC1CCCCC1NC(=O)Nc1ccc(Cl)c(C(F)(F)F)c1 (centres unmarked) [Compound 13]
MIC (M. tuberculosis H37Ra): 0.39 µM (≈ 0.131 µg/mL)

CC1(NC(=O)Nc2ccc(Cl)c(C(F)(F)F)c2)CCCCC1 [Compound 12]
MIC MTB H37Ra (M. tuberculosis H37Ra): 0.10 µM (≈ 0.0335 µg/mL)
MIC (M. tuberculosis H37Ra): 0.1 µM (≈ 0.0335 µg/mL)
IC50 (WT M. tuberculosis H37Rv; [11]): 0.11 µM
MIC90 (WT M. tuberculosis H37Rv; [11]): 0.2 µM (≈ 0.067 µg/mL)
effect on bacteria from the Oligo-Mouse-Microbiota [3]: not affected
competition of 227-p1 labelling of EphF and EphD [2]: weaker competition
TDM/TMM ratio compared with 227 (MmpL3): even lower TDM/TMM ratios
solubility kinetic at 5 min (physchem): 12 µM (≈ 4.02 µg/mL)

O=C(Nc1ccc(Cl)c(C(F)(F)F)c1)NC1COC2(CCC2)OC1 [Compound 21]
MIC MTB H37Ra (M. tuberculosis H37Ra): 0.78 µM (≈ 0.285 µg/mL)
MIC (M. tuberculosis H37Ra): 0.8 µM (≈ 0.292 µg/mL)
IC50 (WT M. tuberculosis H37Rv; [11]): 0.85 µM
MIC90 (WT M. tuberculosis H37Rv; [11]): 1.8 µM (≈ 0.657 µg/mL)
effect on bacteria from the Oligo-Mouse-Microbiota [3]: not affected; also recorded: does not kill
fractional inhibitory concentration (FIC) index (MTB [4]): 0.83
competition of 227-p1 labelling of EphF and EphD [2]: weaker competition
MmpL3 abundance, Student's T-test Difference DMJB-04 0.5 µM vs DMSO (Mtb H37Ra proteome; full proteome, Mtb H37Ra, 0.5 µM): 0.4086
membrane disruption (propidium iodide entry) [5]: Neither 227 nor 21 disrupt the membrane
TDM/TMM ratio compared with 227 (MmpL3): even lower TDM/TMM ratios
EphF inhibition (epoxide hydrolase EphF): inhibits EphF, albeit to a lesser extent
IC50 (HeLa cells; [12]): 52 to 97 µM
IC50 (HeLa cells; HeLa cells, 24 h, read-out: IC50 MTT assay): 71 µM
estimated time above MIC (in vivo [6]): approximately 16 hours
F (in vivo [6]; po, 200 mg/kg): 24.3%
AUC (in vivo [6]; po, 200 mg/kg): 45.7 µM·h
bioavailability (in vivo [6]; po, 200 mg/kg): 25.3%
AUC (in vivo [6]; po, 400 mg/kg): 73.3 µM·h
bioavailability (in vivo [6]; po, 400 mg/kg): 20.4%
CD [7]: 3.38 L/kg
Clearance [7]: 50.82 mL/(kg*min]
AUC (in vivo [8]; iv, 5 mg/kg): 4.58 µM·h
Cmax (in vivo [8]; iv, 5 mg/kg): 6.27 µM
half-life (in vivo [8]; iv, 5 mg/kg): 46.2 min
AUC (in vivo [8]; po, 25 mg/kg): 9.54 µM·h
Cmax (in vivo [8]; po, 25 mg/kg): 4.04 µM
bioavailability (in vivo [8]; po, 25 mg/kg): 42.5%
solubility kinetic at 5 min (physchem): > 200 µM
half-life at 5 µM (in vitro): 8 min
microsomal CLint at 5 µM (in vitro): 88 µL/min/mg

O=C(Nc1ccc(Cl)c(C(F)(F)F)c1)NC1CCCCC1 [Compound 227]
MIC (M. tuberculosis H37Ra): 1.56 to 3.13 µM (≈ 0.5 to 1 µg/mL)
MIC (WT M. tuberculosis H37Rv): 1.8 µM (≈ 0.577 µg/mL)
IC50 (WT M. tuberculosis H37Rv; [11]): 1.3 µM
MIC (WT M. tuberculosis H37Rv; [11]): 1.8 µM (≈ 0.577 µg/mL)
MIC90 (WT M. tuberculosis H37Rv; [11]): 2.5 µM (≈ 0.802 µg/mL)
competition of 227-p1 labelling of EphF and EphD [2]: strongly out-competed; also recorded: out-competed
membrane disruption (propidium iodide entry) [5]: Neither 227 nor 21 disrupt the membrane
EphF inhibition (epoxide hydrolase EphF): strong inhibition
IC50 (HeLa cells; [12]): 15 to 37 µM
Clearance [7]: fast clearance
bioavailability (in vivo [8]; po, 25 mg/kg): 8.6%
solubility kinetic at 5 min (physchem): 55 µM (≈ 17.6 µg/mL)

CC[C@@H](CO)NCCN[C@@H](CC)CO [Ethambutol]
susceptibility shift in MmpL3 under-expressing strain [9]: no significant shifts

O=C(Nc1cc(C(F)(F)F)c(Cl)cn1)NC1CCCCC1 [Compound 2]
MIC (M. tuberculosis H37Ra): > 50 µM

— PMC12041881, “Tailored phenyl ureas eradicate drug-resistant Mycobacterium tuberculosis by targeting mycolic acid cell wall assembly” (Chemical Science, 2025)
